The values below come from PMC10856196 (Molecules, 2024).

The target of assay [1] is T1, human MOP receptor (Opioid Receptor Mu 1) (Homo sapiens, UniProt P35372).
T1 construct: gene OPRM1; human MOP receptor with linked TEV protease site (Tango OPRM1-bla U2OS)
Description: Tango β-arrestin recruitment in U2OS cells, antagonist mode against DAMGO EC80, two concentrations only. The class given is cell-based. The settings on record: read-out: % Emax at 10 μM (relative to β-funaltrexamine). Background: Activated receptors often draw arrestin, which recruitment assays turn into a signal.

The target in assay [2] is T1, human MOP receptor (Opioid Receptor Mu 1). Description: Tango β-arrestin recruitment in U2OS cells, antagonist mode against DAMGO EC80; reference antagonist. The class given is cell-based.

T1 sequence (P35372 whole entry): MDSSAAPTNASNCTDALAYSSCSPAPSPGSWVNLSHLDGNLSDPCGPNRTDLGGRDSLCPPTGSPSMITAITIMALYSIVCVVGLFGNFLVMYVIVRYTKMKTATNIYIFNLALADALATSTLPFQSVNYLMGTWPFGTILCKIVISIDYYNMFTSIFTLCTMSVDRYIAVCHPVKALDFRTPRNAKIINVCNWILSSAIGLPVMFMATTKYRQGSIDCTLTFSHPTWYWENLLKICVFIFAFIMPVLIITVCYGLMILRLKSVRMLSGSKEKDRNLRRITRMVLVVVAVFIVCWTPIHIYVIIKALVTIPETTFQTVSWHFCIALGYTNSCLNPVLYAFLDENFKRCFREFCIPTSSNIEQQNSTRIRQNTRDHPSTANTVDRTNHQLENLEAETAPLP

In the case of `Cc1ccc(N2CCN=C2NC(=O)NC(C)CCc2ccc(F)cc2)cc1` (centres unmarked) [7i, 1-[1-(4-methylphenyl)imidazolin-2-yl]-3-[4-(4-fluorophenyl)but-2-yl]urea], the Emax (as a rule, the size of the effect at its maximum, as opposed to the concentration needed) at 10 µM in assay [1] was 48%.

In assay [2], `COC(=O)/C=C/C(=O)N[C@@H]1CC[C@@]2(O)[C@H]3Cc4ccc(O)c5c4[C@@]2(CCN3CC2CC2)[C@H]1O5` [β-Funaltrexamine] had an Emax at 10 µM of 100%.
